The CheMixHub viscosity set

Assay: xn = mol fraction of the nth substance listed

Clc1ccccc1 + COc1ccccc1
Details | viscosity [mPa·s]
293.15 K, 101.33 kPa, x2 = 0.0976 | 0.8705
293.15 K, 101.33 kPa, x2 = 0.1922 | 0.8967
293.15 K, 101.33 kPa, x2 = 0.2893 | 0.9253
293.15 K, 101.33 kPa, x2 = 0.3873 | 0.9512
293.15 K, 101.33 kPa, x2 = 0.493 | 0.9898
293.15 K, 101.33 kPa, x2 = 0.5987 | 0.967
293.15 K, 101.33 kPa, x2 = 0.7059 | 1.007
293.15 K, 101.33 kPa, x2 = 0.7916 | 1.072
293.15 K, 101.33 kPa, x2 = 0.905 | 1.107
298.15 K, 101 kPa, x2 = 0.0994 | 0.7921
298.15 K, 101 kPa, x2 = 0.2 | 0.8143
298.15 K, 101 kPa, x2 = 0.2957 | 0.8336
298.15 K, 101 kPa, x2 = 0.3982 | 0.8576
298.15 K, 101 kPa, x2 = 0.5028 | 0.88
298.15 K, 101 kPa, x2 = 0.6002 | 0.9024
298.15 K, 101 kPa, x2 = 0.7006 | 0.9275
298.15 K, 101 kPa, x2 = 0.7995 | 0.9474
298.15 K, 101 kPa, x2 = 0.8997 | 0.9779
298.15 K, 101.33 kPa, x2 = 0.0976 | 0.8217
298.15 K, 101.33 kPa, x2 = 0.1922 | 0.8474
298.15 K, 101.33 kPa, x2 = 0.2893 | 0.8642
298.15 K, 101.33 kPa, x2 = 0.3873 | 0.8824
298.15 K, 101.33 kPa, x2 = 0.493 | 0.9356
298.15 K, 101.33 kPa, x2 = 0.5987 | 0.9051
298.15 K, 101.33 kPa, x2 = 0.7059 | 0.9242
298.15 K, 101.33 kPa, x2 = 0.7916 | 0.9965
298.15 K, 101.33 kPa, x2 = 0.905 | 1.037
303.15 K, 101 kPa, x2 = 0.0864 | 0.7392
303.15 K, 101 kPa, x2 = 0.0994 | 0.7495
303.15 K, 101 kPa, x2 = 0.1933 | 0.7667
303.15 K, 101 kPa, x2 = 0.2 | 0.7657
303.15 K, 101 kPa, x2 = 0.2875 | 0.79
303.15 K, 101 kPa, x2 = 0.2957 | 0.785
303.15 K, 101 kPa, x2 = 0.3805 | 0.8112
303.15 K, 101 kPa, x2 = 0.3982 | 0.8026
303.15 K, 101 kPa, x2 = 0.4904 | 0.8348
303.15 K, 101 kPa, x2 = 0.5028 | 0.8232
303.15 K, 101 kPa, x2 = 0.5826 | 0.8538
303.15 K, 101 kPa, x2 = 0.6002 | 0.8438
303.15 K, 101 kPa, x2 = 0.6914 | 0.8755
303.15 K, 101 kPa, x2 = 0.7006 | 0.8635
303.15 K, 101 kPa, x2 = 0.779 | 0.8922
303.15 K, 101 kPa, x2 = 0.7995 | 0.8808
303.15 K, 101 kPa, x2 = 0.8905 | 0.9132
303.15 K, 101 kPa, x2 = 0.8997 | 0.9091
308.15 K, 101 kPa, x2 = 0.0994 | 0.7047
308.15 K, 101 kPa, x2 = 0.2 | 0.7212
308.15 K, 101 kPa, x2 = 0.2957 | 0.7354
308.15 K, 101 kPa, x2 = 0.3982 | 0.7535
308.15 K, 101 kPa, x2 = 0.5028 | 0.7693
308.15 K, 101 kPa, x2 = 0.6002 | 0.7866
308.15 K, 101 kPa, x2 = 0.7006 | 0.8038
308.15 K, 101 kPa, x2 = 0.7995 | 0.8201
308.15 K, 101 kPa, x2 = 0.8997 | 0.8444
313.15 K, 101 kPa, x2 = 0.0994 | 0.6642
313.15 K, 101 kPa, x2 = 0.2 | 0.6768
313.15 K, 101 kPa, x2 = 0.2957 | 0.6921
313.15 K, 101 kPa, x2 = 0.3982 | 0.7064
313.15 K, 101 kPa, x2 = 0.5028 | 0.7227
313.15 K, 101 kPa, x2 = 0.6002 | 0.7366
313.15 K, 101 kPa, x2 = 0.7006 | 0.7511
313.15 K, 101 kPa, x2 = 0.7995 | 0.7649
313.15 K, 101 kPa, x2 = 0.8997 | 0.7855
